Laboratory results from US6482850B2, “Hydrolysis-promoting hydrophobic taxane derivatives” (priority 1995, dated 2002).

Experiments:
[1] = system: A-549 human lung carcinoma; experiment: In vitro sensitivity, sulforhodamine B cytotoxicity assay, A-549 (Table 2); assay type: cell-based; details: 72-hour incubation; averaged from two separate experiments
Experimental: Briefly, 96-well microtiter plates were inoculated (100 μL/well) with 5×10^3 (A549) or 7.5×10^3 (OVCAR-3) cells/well, in RPMI-1640 supplemented with 10% FBS (growth media). The plates were incubated for 24 hr at 37° C., 100% humidity and 5% CO2. At 24 hours, growth media (100 μL) was added to designated “time zero” plates. Similarly, serial dilutions of drug or vehicle (in media) were added (100 μL aliquots) to the test and vehicle control wells at twice the predetermined highest concentration. […] Cells (including time zero plates) were then fixed with 50 μL of 50% trichloroacetic acid (TCA) (w:v) for adherent cells or 80% TCA for suspended cells, and plates refrigerated at 4° C. for 1 hr. […] The plates were then air-dried for 24 hr.

CDF1 mice = experiment: In vivo toxicity, i.p. x 5, non-tumor bearing mice; details: 30 days observation
Experimental: A separate group (n=5) was injected with concentrations of Cremophor® EL and ethanol (in PBS) equivalent to the highest concentration of the test treatment. Mortality was recorded daily and body weights taken at least twice weekly for an observation period of 30 days.

CCCCCCCCCCCCCC[C@@H](Br)C(=O)O[C@@H](C(=O)O[C@H]1C[C@@]2(O)[C@@H](OC(=O)c3ccccc3)[C@@H]3[C@]4(OC(C)=O)CO[C@@H]4C[C@H](O)[C@@]3(C)C(=O)[C@H](OC(C)=O)C(=C1C)C2(C)C)[C@@H](NC(=O)c1ccccc1)c1ccccc1 [BrC16HT, 2′-(R)-[2-bromohexadecanoyl] paclitaxel]
GI50 [1]: 127 nM
Number of Mice surviving/Total (CDF1 mice; i.p. days 1 through 5, 12.5 mg/kg): 10/10
Number of Mice surviving/Total (CDF1 mice; i.p. days 1 through 5, 25 mg/kg): 19/19
Number of Mice surviving/Total (CDF1 mice; i.p. days 1 through 5, 37.5 mg/kg): 10/10
Number of Mice surviving/Total (CDF1 mice; i.p. days 1 through 5, 50 mg/kg): 14/20
Number of Mice surviving/Total (CDF1 mice; i.p. days 1 through 5, 75 mg/kg): 0/5
Number of Mice surviving/Total (CDF1 mice; i.p. days 1 through 5, 100 mg/kg): 0/2
